Experimental data published in ChEMBL document CHEMBL1201862, “PubChem BioAssay data set” (2004).
Several values for one entry are separate records, joined by “and”; a condition that tells them apart may be missing. Equal values may be shown once. Activity calls are given as the source filed them.

Assays:
[1] = target: Muscarinic acetylcholine receptor M1 (Rattus norvegicus, UniProt P08482); test: rat M1 positive allosteric modulator potency, dose response, cell-based, calcium mobilization, CHO-K1, ACh EC20 (AID 2425); type: functional
Sequence of Muscarinic acetylcholine receptor M1 (P08482 whole entry): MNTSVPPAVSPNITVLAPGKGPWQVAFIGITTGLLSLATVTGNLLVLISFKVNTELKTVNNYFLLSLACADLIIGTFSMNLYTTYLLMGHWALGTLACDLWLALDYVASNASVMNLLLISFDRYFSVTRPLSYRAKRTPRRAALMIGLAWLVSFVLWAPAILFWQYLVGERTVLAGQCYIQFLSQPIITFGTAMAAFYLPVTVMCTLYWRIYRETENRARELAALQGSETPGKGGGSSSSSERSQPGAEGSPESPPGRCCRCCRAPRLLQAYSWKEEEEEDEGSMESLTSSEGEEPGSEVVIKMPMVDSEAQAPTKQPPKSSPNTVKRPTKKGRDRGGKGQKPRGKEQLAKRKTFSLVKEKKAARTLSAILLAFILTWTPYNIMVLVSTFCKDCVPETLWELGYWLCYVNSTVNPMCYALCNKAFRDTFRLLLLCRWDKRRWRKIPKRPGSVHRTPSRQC

[2] = microbe, parasite or virus in culture; type: functional; conditions: Mycobacterium tuberculosis
[3] = M. tuberculosis growth inhibition, HTS (AID 449762); type: functional
[4] = target: T1, Induced myeloid leukemia cell differentiation protein Mcl-1 (Homo sapiens, UniProt Q07820); type: functional
T1 sequence (Q07820 whole entry): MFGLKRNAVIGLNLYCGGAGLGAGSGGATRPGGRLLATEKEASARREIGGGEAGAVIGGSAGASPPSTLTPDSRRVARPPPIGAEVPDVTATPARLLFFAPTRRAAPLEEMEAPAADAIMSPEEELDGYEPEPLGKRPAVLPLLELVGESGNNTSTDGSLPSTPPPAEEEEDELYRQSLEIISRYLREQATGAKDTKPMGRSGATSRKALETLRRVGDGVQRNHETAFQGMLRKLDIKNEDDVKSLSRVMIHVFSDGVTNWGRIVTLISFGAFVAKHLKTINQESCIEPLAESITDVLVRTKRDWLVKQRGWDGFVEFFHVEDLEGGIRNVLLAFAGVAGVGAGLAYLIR

[5] = target: T2, Tyrosine-protein phosphatase non-receptor type 7 (Homo sapiens, UniProt P35236); test: redox-dependent HePTP inhibition, mechanism study, biochemical, fluorescence (AID 2068); type: functional
T2 sequence (P35236 whole entry): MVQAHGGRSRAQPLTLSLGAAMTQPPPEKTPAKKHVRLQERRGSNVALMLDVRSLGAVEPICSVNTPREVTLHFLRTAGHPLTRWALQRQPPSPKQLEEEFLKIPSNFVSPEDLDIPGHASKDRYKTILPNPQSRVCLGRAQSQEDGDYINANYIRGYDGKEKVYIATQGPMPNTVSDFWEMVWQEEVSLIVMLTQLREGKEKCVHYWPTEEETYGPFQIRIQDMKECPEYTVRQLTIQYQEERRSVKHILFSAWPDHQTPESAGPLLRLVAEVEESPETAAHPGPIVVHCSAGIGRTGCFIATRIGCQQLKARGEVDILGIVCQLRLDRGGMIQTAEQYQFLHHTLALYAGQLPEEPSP

Estrogen receptor beta = Estrogen receptor beta (Homo sapiens, UniProt Q92731); test: ERβ–SRC-3 coactivator interaction inhibitors, confirmation, orthogonal assay, biochemical, ELISA, streptavidin-HRP readout (AID 1060)
Sequence of Estrogen receptor beta (Q92731 whole entry): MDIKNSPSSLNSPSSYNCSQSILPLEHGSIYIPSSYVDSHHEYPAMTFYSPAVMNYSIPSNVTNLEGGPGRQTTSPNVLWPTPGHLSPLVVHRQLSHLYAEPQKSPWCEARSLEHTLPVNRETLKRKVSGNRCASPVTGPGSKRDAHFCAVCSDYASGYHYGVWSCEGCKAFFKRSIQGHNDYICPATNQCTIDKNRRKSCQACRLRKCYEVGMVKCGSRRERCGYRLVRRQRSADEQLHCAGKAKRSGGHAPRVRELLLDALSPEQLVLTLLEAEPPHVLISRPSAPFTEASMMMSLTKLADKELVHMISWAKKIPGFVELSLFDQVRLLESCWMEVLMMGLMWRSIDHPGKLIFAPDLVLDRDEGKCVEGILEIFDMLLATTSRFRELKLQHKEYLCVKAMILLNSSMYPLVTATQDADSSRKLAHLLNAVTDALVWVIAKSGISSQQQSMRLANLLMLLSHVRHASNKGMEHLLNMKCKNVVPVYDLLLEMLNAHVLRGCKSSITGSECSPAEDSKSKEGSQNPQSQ

Ephrin type-A receptor 4 = Ephrin type-A receptor 4 (Mus musculus, UniProt Q03137); test: inhibitors of EphA4 binding to KYL peptide, primary screen, biochemical, colorimetric, mouse EphA4 (AID 689); type: functional
Sequence of Ephrin type-A receptor 4 (Q03137 whole entry): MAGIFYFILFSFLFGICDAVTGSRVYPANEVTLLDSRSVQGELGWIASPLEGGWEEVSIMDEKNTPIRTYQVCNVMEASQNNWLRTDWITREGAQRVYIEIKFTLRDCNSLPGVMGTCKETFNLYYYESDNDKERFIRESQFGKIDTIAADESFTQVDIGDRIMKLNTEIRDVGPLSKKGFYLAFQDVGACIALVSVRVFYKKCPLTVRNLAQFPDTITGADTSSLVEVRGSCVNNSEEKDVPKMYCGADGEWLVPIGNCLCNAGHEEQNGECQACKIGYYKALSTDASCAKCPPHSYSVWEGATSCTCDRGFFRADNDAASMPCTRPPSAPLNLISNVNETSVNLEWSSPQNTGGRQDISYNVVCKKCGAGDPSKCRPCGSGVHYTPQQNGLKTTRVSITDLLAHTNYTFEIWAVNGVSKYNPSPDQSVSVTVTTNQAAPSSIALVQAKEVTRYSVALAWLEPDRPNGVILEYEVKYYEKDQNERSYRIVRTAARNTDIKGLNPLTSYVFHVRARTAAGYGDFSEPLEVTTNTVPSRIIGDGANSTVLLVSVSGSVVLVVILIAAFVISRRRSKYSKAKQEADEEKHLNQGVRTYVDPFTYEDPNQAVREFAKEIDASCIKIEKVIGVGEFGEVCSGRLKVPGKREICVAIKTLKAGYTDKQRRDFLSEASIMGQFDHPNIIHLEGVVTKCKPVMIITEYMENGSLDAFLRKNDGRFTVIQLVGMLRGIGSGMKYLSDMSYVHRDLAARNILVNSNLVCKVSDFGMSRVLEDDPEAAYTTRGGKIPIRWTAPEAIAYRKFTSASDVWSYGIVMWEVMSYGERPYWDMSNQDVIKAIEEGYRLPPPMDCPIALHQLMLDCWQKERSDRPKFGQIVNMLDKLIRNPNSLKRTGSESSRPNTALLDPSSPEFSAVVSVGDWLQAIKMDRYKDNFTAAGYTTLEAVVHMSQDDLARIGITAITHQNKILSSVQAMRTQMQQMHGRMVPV

[6] = control 3'UTR Renilla luciferase suppression, dose response, counter-screen for Shn3 inhibitor project, cell-based, Clone20-Shn3RL, cherry-picked (AID 624133); type: functional
[7] = target: E3 ubiquitin-protein ligase Mdm2 (Homo sapiens, UniProt Q00987); test: enhancers of MDM2-luciferase reporter signal, concentration-effect titration, project on inhibitors of MDM2 ubiquitin ligase, cellular assay, luminescent readout, 384-well plate format (AID 1394); type: functional;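 note: MDM2 E3 inhibitors raise luminescence so EC50 is for signal enhancement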
Sequence of E3 ubiquitin-protein ligase Mdm2 (Q00987 whole entry): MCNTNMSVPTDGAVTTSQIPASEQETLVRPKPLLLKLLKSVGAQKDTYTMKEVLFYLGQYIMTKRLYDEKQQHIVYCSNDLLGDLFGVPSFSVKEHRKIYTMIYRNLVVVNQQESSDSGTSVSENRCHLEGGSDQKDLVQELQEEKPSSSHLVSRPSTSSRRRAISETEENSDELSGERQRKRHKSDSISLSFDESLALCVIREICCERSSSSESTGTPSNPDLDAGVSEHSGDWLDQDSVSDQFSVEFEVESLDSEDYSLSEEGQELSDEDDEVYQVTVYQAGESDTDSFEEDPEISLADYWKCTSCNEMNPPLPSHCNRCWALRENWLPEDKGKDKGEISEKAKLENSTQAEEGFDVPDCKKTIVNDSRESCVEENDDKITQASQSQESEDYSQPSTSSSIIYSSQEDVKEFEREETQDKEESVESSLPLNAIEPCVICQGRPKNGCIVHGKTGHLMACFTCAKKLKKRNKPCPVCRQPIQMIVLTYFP

[8] = Shn3 3'UTR reporter inhibitors, dose response, cell-based, Clone20 osteoblasts, firefly luciferase, cherry-picked (AID 624132); type: functional;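 note: firefly luciferase luminescence from reporter carrying the Shn3 3'UTR in osteoblasts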
[9] = HEK293T cell cytotoxicity, dose response, cytotoxicity control for HIV Vif inhibitor project, cherry-picks (AID 652208); type: functional, cell-based
[10] = Artemis endonuclease inhibitor potency, dose response, biochemical, fluorescence intensity (AID 720701); type: functional;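 note: Artemis endonuclease enzyme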
Bcl-2-like protein 10 = Bcl-2-like protein 10 (Homo sapiens, UniProt Q9HD36); test: displacers of TR3 peptide from Bcl-B, primary screen, selectivity assay for Bfl-1 inhibitor project, biochemical, fluorescence polarization, FITC-TR3 peptide (AID 748);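 note: fluorescence polarization from a fluorescein-labelled TR3 peptide binding purified Bcl-B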
Sequence of Bcl-2-like protein 10 (Q9HD36 whole entry): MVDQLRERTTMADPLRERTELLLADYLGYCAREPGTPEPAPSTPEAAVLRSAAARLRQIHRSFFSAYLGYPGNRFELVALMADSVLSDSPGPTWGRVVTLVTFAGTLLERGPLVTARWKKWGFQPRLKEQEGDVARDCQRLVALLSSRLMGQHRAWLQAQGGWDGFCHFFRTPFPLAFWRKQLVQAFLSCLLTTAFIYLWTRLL

[11] = HEK293 cell cytotoxicity, dose response, cytotoxicity control, dry powder samples (AID 720567); type: functional, cell-based
[12] = cytotoxicity toward DRD oncogenic fibroblasts, dose response, cell-based, non-viral oncogenic, luminescence (AID 1934); type: functional; conditions: Homo sapiens
BJ [13] = test: cells; type: functional, cell-based; conditions: Homo sapiens
[14] = HepG2 cell cytotoxicity, dose response, cytotoxicity control, dry powder samples (AID 720568); type: functional, cell-based
BJ [15] = test: cytotoxicity toward BJ-TERT fibroblasts, dose response, cell-based, RAS-independent, luminescence (AID 1933); type: functional; conditions: Homo sapiens
BJ [16] = test: cytotoxicity toward BJ-TERT-LT-ST fibroblasts, dose response, cell-based, RAS-independent, luminescence (AID 1935); type: functional; conditions: Homo sapiens;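 note: BJ fibroblasts immortalized with TERT plus LT and ST oncogenes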
[17] = target: T1, Induced myeloid leukemia cell differentiation protein Mcl-1; test: MCL1-BIM BH3 interaction inhibitors, dose response, biochemical, fluorescence polarization, BIM-BH3 peptide, 1536-well (AID 2217)
Caspase-6 = target: T3, Caspase-6 (Homo sapiens, UniProt P55212); test: human caspase-6 inhibitors, dose response, biochemical, VEID-R110 fluorescence, cherry-pick (AID 720632)
T3 sequence (P55212 whole entry): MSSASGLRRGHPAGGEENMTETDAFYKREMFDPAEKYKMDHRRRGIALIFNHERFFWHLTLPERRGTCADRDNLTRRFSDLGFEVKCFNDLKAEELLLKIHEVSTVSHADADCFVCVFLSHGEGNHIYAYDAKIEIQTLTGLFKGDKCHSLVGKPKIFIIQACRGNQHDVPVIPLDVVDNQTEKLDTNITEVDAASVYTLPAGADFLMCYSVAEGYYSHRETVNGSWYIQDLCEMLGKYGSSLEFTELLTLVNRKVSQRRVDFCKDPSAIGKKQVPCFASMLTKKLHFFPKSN

Protein Tat = Protein Tat (Human immunodeficiency virus type 1 group M subtype B (isolate HXB2)(HIV-1), UniProt P04608); type: functional;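 note: tat binding to TAR RNA read out by fluorescence polarization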
Sequence of Protein Tat (P04608 whole entry): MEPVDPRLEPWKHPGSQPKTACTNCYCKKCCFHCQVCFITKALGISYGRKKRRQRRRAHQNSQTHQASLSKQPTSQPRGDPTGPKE

Caspase-7 = Caspase-7 (Homo sapiens, UniProt P55210); test: human caspase-7 inhibitors, dose response, selectivity assay for caspase-6 inhibitor project, biochemical, DEVD-R110 fluorescence, cherry-pick (AID 743295)
Sequence of Caspase-7 (P55210 24-198 limits assumed): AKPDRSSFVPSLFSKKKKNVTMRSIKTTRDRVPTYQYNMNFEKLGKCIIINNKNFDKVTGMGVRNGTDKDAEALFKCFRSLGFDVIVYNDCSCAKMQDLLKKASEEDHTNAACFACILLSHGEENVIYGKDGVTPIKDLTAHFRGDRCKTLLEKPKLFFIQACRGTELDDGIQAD
Sequence of Caspase-7 (P55210 207-303 limits assumed): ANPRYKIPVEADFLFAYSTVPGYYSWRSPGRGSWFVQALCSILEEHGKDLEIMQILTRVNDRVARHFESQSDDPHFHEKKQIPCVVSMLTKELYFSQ

Bcl-2-like protein 1 = Bcl-2-like protein 1 (Homo sapiens, UniProt Q07817); test: BCL-XL inhibitors, dose response, selectivity assay for MCL1 inhibitor project, biochemical, fluorescence polarization, 1536-well (AID 2218)
Sequence of Bcl-2-like protein 1 (Q07817 whole entry): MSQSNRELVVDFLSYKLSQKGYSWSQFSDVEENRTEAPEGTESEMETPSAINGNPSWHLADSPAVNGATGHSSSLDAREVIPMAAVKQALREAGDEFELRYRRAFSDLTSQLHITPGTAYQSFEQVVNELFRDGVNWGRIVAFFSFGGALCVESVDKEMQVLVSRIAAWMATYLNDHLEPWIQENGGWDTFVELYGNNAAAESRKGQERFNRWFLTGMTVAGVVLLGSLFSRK

Caspase-8 = Caspase-8 (Homo sapiens, UniProt Q14790); test: caspase-8 inhibition counter-screen, dose response, selectivity assay for caspase-6 inhibitor project, biochemical, Z-IETD-R110 fluorescence, cherry-picked samples (AID 743294)
Sequence of Caspase-8 (Q14790 217-374 limits assumed): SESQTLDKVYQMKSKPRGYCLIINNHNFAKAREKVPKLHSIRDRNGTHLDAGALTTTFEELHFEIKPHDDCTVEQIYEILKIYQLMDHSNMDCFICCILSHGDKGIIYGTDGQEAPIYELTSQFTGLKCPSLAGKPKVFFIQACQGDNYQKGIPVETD
Sequence of Caspase-8 (Q14790 385-479 limits assumed): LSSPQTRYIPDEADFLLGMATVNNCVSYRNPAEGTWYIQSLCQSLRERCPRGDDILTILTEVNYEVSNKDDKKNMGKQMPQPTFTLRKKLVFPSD

[18] = target: T4, Carboxy-terminal domain RNA polymerase II polypeptide A small phosphatase 1 (Homo sapiens, UniProt Q9GZU7); test: inhibitors of CTDSP1, concentration-response testing, biochemical assay, absorbance-based, actives from ultra-high-throughput screening (AID 540297); type: functional
T4 sequence (Q9GZU7 whole entry): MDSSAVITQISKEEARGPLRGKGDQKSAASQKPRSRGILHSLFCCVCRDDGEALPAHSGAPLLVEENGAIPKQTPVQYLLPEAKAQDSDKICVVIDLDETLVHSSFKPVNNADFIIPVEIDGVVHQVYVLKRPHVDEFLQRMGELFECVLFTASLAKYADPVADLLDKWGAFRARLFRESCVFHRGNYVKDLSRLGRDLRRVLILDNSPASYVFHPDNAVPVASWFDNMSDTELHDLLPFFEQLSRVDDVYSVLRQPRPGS

[19] = target: T5, Beta-2 adrenergic receptor (Homo sapiens, UniProt P07550); test: Dose response for HTS for Beta-2AR agonists via FAP method from Powderset1.; type: functional
T5 sequence (P07550 whole entry): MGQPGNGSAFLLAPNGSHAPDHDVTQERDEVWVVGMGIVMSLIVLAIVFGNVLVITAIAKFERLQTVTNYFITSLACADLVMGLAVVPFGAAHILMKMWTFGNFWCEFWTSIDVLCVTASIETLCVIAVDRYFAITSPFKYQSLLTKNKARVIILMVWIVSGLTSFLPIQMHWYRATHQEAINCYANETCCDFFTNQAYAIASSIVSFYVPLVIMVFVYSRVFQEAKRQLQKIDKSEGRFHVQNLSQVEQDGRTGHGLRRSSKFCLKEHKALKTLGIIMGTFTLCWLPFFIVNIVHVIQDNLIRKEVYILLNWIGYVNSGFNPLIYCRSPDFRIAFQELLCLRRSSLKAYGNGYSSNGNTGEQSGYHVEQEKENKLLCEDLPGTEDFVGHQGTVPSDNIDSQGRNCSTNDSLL

[20] = target: T5, Beta-2 adrenergic receptor; test: beta2AR agonists driving receptor internalization, dose response, cell-based, FAP fluorogen, flow cytometry, cherry pick 1 (AID 588763); type: functional
[21] = target: T2, Tyrosine-protein phosphatase non-receptor type 7; test: inhibitors of human HePTP phosphatase, […], biochemical, absorbance, leukemia target (AID 521); type: functional

Compound: Cn1cc(-c2ccc(CN3C(=O)C(=O)c4ccccc43)c(F)c2)cn1
- EC50 [1]: 0.845 µM (active)

Compound: O=C(CSc1n[nH]c(-c2ccccc2)n1)Nc1ccc(Br)cn1
- CC50 [2]: > 40 µM (active)
- IC50 [3]: > 100 µM (active)

Compound: O=C(NCc1ccccc1)c1ccc2nc(-c3ccco3)c(-c3ccco3)nc2c1
- IC50 [4]: 4.26 µM (active)
- IC50 [5]: 3.99 µM (active)
- IC50 (Estrogen receptor beta): < 0.023 µM (not active)
- IC50 (Ephrin type-A receptor 4): 11.1 µM (active)

Compound: COc1ccc(-c2cc(C(F)(F)F)nc(S(=O)(=O)CCCC(=O)Nc3cccnc3Cl)n2)cc1OC
- AC50 [6]: 13.8 µM (active)
- EC50 [7]: 25 µM (not active)
- AC50 [8]: 3.17 µM (active)
- AC50 [9]: 11.6 µM (active)

Compound: Cc1cc(OCC(=O)Nc2ccc(N3CCCC3)cc2)cc(C)c1Cl
- IC50 [10]: > 20 µM (inactive)
- IC50 (Bcl-2-like protein 10): > 100 µM (inactive)

Compound: COc1cc(C(=O)NCCOc2cc(C)cc(C)c2)cc(OC)c1OC
- AC50 [11]: 16.9 µM (active)
- EC50 [12]: 4.9 µM (active)
- EC50 (BJ [13]): 5.25 µM (active)
- AC50 [14]: 24.7 µM (active)
- EC50 (BJ [15]): 16.3 µM (active)
- EC50 (BJ [16]): 17.1 µM (inconclusive)

Compound: Cc1ccc(C)c(NC(=O)CN(C)C(=O)c2cccc(-n3cccc3)c2)c1
- IC50 [17]: 10.9 µM (not active)
- AC50 (Caspase-6): 4.58 µM (active)
- IC50 (Protein Tat): > 100 µM (active)
- AC50 (Caspase-7): > 70 µM (inactive)
- IC50 (Bcl-2-like protein 1): > 109 µM (not active)
- AC50 (Caspase-8): > 70 µM (inactive)
- IC50 [18]: 6.04 µM (active)

Compound: Cc1ccc(OCC(=O)Nc2ccc(-c3nc4ncccc4o3)cc2)cc1
- EC50 [19]: 0.0155 µM (active)
- EC50 [20]: 31.6 nM (active) and 61.1 nM (active)
- IC50 [21]: > 100 µM (not active)
